Data on 53 compounds can be found in USRE34918E, “Azaazulene compounds which are useful as antiallergic and antiinflammatory agents” (Kaken Pharmaceutical Co., Ltd., priority 1988, dated 1995).

The structures appear in SMILES notation. Counter-ions that a name gives are not always drawn.

This test relates to histamine release from rat mast cell. Description: Inhibitory activity against histamine release from rat mast cell. Particulars: 10 μg/ml, read-out: Inhibitory rate against histamine release. The format is cell-based. As for the experimental part:
An anti-dinitrophenylated-ovalbumin (anti DNP-OVA) rat antiserum having 800 of PCA titer in homologous passive cutaneous anaphylaxis reaction in rats for 48 hours was diluted double with physiological saline, and 1 ml of diluted antiserum was injected intraperitoneally into rats to be passively sensitized. On the next day, peritoneal exudation cell (hereinafter referred to as "PEC") was collected. The collected PEC was washed with a medium containing 0.1% BSA, and 1.5×10^5 of the PEC were added to each test tube. AFter incubation at 37° C. for 10 minutes, 50 μl of test compound solution in a same medium was added thereto. After 30 seconds, 50 μl of antigen solution (DVA-OVA 100 μg/ml) was further added thereto to give the total amount of 500 μl of the reaction mixture, and histamine release reaction was induced. After 10 minutes, 1 ml of physiological saline with cooled Tris buffered solution containing 1 mM EDTA were added thereto to stop the reaction. After centrifugation, the amount of histamine in supernatant was determined by fluorescence method according to the method of Shore et al [cf. J. Pharmacol. Exp. Ther., 127, 182 (1959)]. Inhibition rate against histamine release was calculated according to the following equation.
Inhibition rate against histamine release [formula] M: Amount of histamine in supernatant under addition of antigen and non-addition of test compound
S: Amount of histamine in supernatant under addition of antigen and test compound
B: Amount of histamine in supernatant under non-addition of antigen and test compound.
The test compound was used in a concentration of 10 μg/ml.
For `COc1ccccc1N1CCN(c2nc3cccccc-3c2C#N)CC1` [Example 64, 3-Cyano-2-(4-(2-methoxyphenyl)piperazinyl)-1-azaazulene], the inhibition at 10 µg/mL was -12.2%.

Regarding `N#Cc1c2cccccc-2nc1NCCN1CCCC1` [Example 75], the inhibition at 10 µg/mL is -9.6%.

`CC(C)c1cccc2c(-c3nn[nH]n3)c(=O)n(Cc3ccc(Cl)cc3)c-2c1` [Example 57]: the inhibition at 10 µg/mL stood at 89%.

Take `N#Cc1c2cccccc-2nc1NC(CO)C(=O)O` (centres unmarked) [Example 72]: the inhibition at 10 µg/mL was 22.5%.

On to `CC(C)c1cccc2c(-c3nn[nH]n3)c(=O)n(CCc3ccccc3)c-2c1` [Example 27], for which the inhibition at 10 µg/mL is 89.6%.

Consider `C=CCn1c2cccccc-2c(-c2nnn[nH]2)c1=O` [Example 22], for which the inhibition at 10 µg/mL came out at 84.2%.

Take `O=c1c(-c2nn[nH]n2)c2cccccc-2n1CCc1ccccc1` [Example 26]: the inhibition at 10 µg/mL came to 94.1%.

As for `O=c1c(-c2nn[nH]n2)c2cccccc-2n1Cc1cccc(F)c1` [Example 33], the inhibition at 10 µg/mL is 67.2%.

Regarding `CC(C)c1cccc2c(C#N)c(N=[N+]=[N-])nc-2c1` [Example 61, 2-Azido-3-cyano-7-isopropyl-1-azaazulene], the inhibition at 10 µg/mL was found to be 3.8%.

On to `O=c1c(-c2nnn[nH]2)c2cccccc-2n1CCC(c1ccccc1)c1ccccc1` [Example 25], for which the inhibition at 10 µg/mL stood at 4.6%.

For the compound `O=c1c(-c2nn[nH]n2)c2cccccc-2n1CC=Cc1ccccc1` [Example 42], the inhibition at 10 µg/mL was 78.2%.

As for `O=c1c(-c2nn[nH]n2)c2cccccc-2n1CCCc1ccccc1` [Example 28], the inhibition at 10 µg/mL turned out to be 92.6%.

Turning to `N#Cc1c2cccccc-2nc1Nc1ccc(C(=O)O)cc1` [Example 67], the inhibition at 10 µg/mL came to 57%.

On to `CC(C)c1cccc2nc(NCC(=O)O)c(C#N)c-2c1` [Example 63, Sodium salt of 2-carboxymethylamino-3-cyano-5-isopropyl-1-azaazulene], for which the inhibition at 10 µg/mL came out at 85.3%.

With `O=C(Cn1c2cccccc-2c(-c2nn[nH]n2)c1=O)c1ccc(Cl)cc1` [Example 41], the inhibition at 10 µg/mL came to 32.3%.

`O=c1c(-c2nn[nH]n2)c2cccccc-2n1Cc1ccccc1F` [Example 34]: the inhibition at 10 µg/mL is 87.3%.

On to `Cn1c2cccccc-2c(-c2nnn[nH]2)c1=O` [Example 15], for which the inhibition at 10 µg/mL was 96.1%.

For the compound `CC(C)c1cccc2n(Cc3ccc(Cl)cc3)c(=O)c(-c3nn[nH]n3)c-2c1` [Example 56], the inhibition at 10 µg/mL worked out at 88%.

As for `CCOCCn1c2cccccc-2c(-c2nnn[nH]2)c1=O` [Example 23], the inhibition at 10 µg/mL turned out to be 87.2%.

Consider `O=c1c(-c2nn[nH]n2)c2cccccc-2n1CCCCc1ccccc1` [Example 31], for which the inhibition at 10 µg/mL is 70%.

Consider `CC(C)c1cccc2n(Cc3ccc4ccccc4n3)c(=O)c(-c3nn[nH]n3)c-2c1` [Example 53], for which the inhibition at 10 µg/mL came to 56.3%.

Consider `N#Cc1ccc(Cn2c3cccccc-3c(-c3nn[nH]n3)c2=O)cc1` [Example 36], for which the inhibition at 10 µg/mL was 43.2%.

As for `CCOC(=O)C(Cc1ccccc1)Nc1nc2cccccc-2c1C#N` (centres unmarked) [Example 70], the inhibition at 10 µg/mL came out at 4.2%.

With `O=c1c(-c2nn[nH]n2)c2cccccc-2n1CCCCCc1ccccc1` [Example 32], the inhibition at 10 µg/mL came out at 1.5%.

Turning to `CCOC(=O)c1ccc(Nc2nc3cccccc-3c2C#N)cc1` [Example 66], the inhibition at 10 µg/mL is 20.5%.

Regarding `CC(C)c1cccc2n(Cc3cccs3)c(=O)c(-c3nn[nH]n3)c-2c1` [Example 55], the inhibition at 10 µg/mL is 65.8%.

With `COC(=O)c1ccccc1Nc1nc2cccccc-2c1C#N` [Example 68], the inhibition at 10 µg/mL came out at 8.9%.

In the case of `O=c1c(-c2nn[nH]n2)c2cccccc-2n1Cc1ccc(Cl)cc1Cl` [Example 45], the inhibition at 10 µg/mL is 19.3%.

As for `CCCCCCCCCCCCCCCCCCn1c2cccccc-2c(-c2nnn[nH]2)c1=O` [Example 21], the inhibition at 10 µg/mL stood at 10.1%.

As for `CCCc1c(OCCCn2c3cccc(C(C)C)cc-3c(-c3nn[nH]n3)c2=O)ccc(C(C)=O)c1O` [Example 50], the inhibition at 10 µg/mL was found to be 59.8%.

In the case of `COc1ccc(Cn2c3cccccc-3c(-c3nn[nH]n3)c2=O)cc1` [Example 39], the inhibition at 10 µg/mL came to 93%.

For `N#Cc1c2cccccc-2nc1NC(c1ccccc1)c1ccccc1` [Example 65], the inhibition at 10 µg/mL came to 17.5%.

For `CCOC(=O)c1ccc(Cn2c3cccccc-3c(-c3nn[nH]n3)c2=O)cc1` [Example 37], the inhibition at 10 µg/mL is 64.8%.

Take `CC(C)c1cccc2n(CCc3ccc(O)c(O)c3)c(=O)c(-c3nnn[nH]3)c-2c1` [Example 12, 1-(3,4-Dihydroxyphenylethyl)-5-iso-propyl-3-(5-tetrazolyl)-1-azaazulane-2-one]: the inhibition at 10 µg/mL stood at 60%.

`CC(C)c1cccc2c(C#N)c(NCC(=O)O)nc-2c1` [Example 79]: the inhibition at 10 µg/mL stood at 85.8%.

For `CC(C)n1c2cccccc-2c(-c2nn[nH]n2)c1=O` [Example 52], the inhibition at 10 µg/mL worked out at 81.2%.

With `O=c1c(-c2nnn[nH]2)c2cccccc-2n1Cc1ccc(Cl)cc1` [Example 11, 1-(4-Chlorobenzyl)-3-(5-tetrazolyl)-1-azaazulane-2-one], the inhibition at 10 µg/mL turned out to be 85.8%.

In the case of `Cc1cc(C)c(Cn2c3cccccc-3c(-c3nn[nH]n3)c2=O)c(C)c1` [Example 47], the inhibition at 10 µg/mL is 12.6%.

For `CCCCCCn1c2cccccc-2c(-c2nnn[nH]2)c1=O` [Example 20], the inhibition at 10 µg/mL is 91.1%.

For `N#Cc1c2cccccc-2nc1N1CCCC1C(=O)O` (centres unmarked) [Example 78], the inhibition at 10 µg/mL stood at 50.5%.

As for `N#Cc1c2cccccc-2nc1NC(Cc1ccccc1)C(=O)O` (centres unmarked) [Example 71], the inhibition at 10 µg/mL is 8.1%.

For `O=c1c(-c2nn[nH]n2)c2cccccc-2n1Cc1ccc(O)cc1` [Example 40], the inhibition at 10 µg/mL was 93.5%.

With `CC(C)c1cccc2nc(N=[N+]=[N-])c(C#N)c-2c1` [Example 76], the inhibition at 10 µg/mL is 70.5%.

In the case of `O=c1c(-c2nnn[nH]2)c2cccccc-2n1Cc1ccc(F)cc1` [Example 8, 1-(4-Fluorobenzyl)-3-(5-tetrazolyl)-1-azaazulane-2-one], the inhibition at 10 µg/mL was 89.6%.

On to `N#Cc1c2cccccc-2nc1NCC(c1ccccc1)c1ccccc1` [Example 58, 3-Cyano-2-(2,2-diphenylethylamino)-1-azaazulene], for which the inhibition at 10 µg/mL is 16.1%.

As for `N#Cc1c2cccccc-2nc1N` [Example 74], the inhibition at 10 µg/mL stood at 64.8%.

Take `N#CCCCn1c2cccccc-2c(-c2nnn[nH]2)c1=O` [Example 24]: the inhibition at 10 µg/mL amounted to 86.3%.

Turning to `N#Cc1c2cccccc-2nc1N1CCN(C(c2ccccc2)c2ccccc2)CC1` [Example 69], the inhibition at 10 µg/mL is 33.2%.

In the case of `O=c1[nH]c2cccccc-2c1-c1nnn[nH]1` [Example 14], the inhibition at 10 µg/mL was determined as 89.6%.

On to `N#Cc1c2cccccc-2nc1NCCC(c1ccccc1)c1ccccc1` [Example 59, 3-Cyano-2-(3,3-diphenylpropylamino)-1-azaazulene], for which the inhibition at 10 µg/mL amounted to 14%.

As to `CC(Nc1nc2cccccc-2c1C#N)C(=O)O` (centres unmarked) [Example 73], the inhibition at 10 µg/mL was 60.8%.

On to `O=c1c(-c2nn[nH]n2)c2cccccc-2n1CCCCl` [Example 54], for which the inhibition at 10 µg/mL came out at 55.5%.

For the compound `COC(=O)C1CCCN1c1nc2cccccc-2c1C#N` (centres unmarked) [Example 77], the inhibition at 10 µg/mL turned out to be 35.7%.
